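How tested: cells in 96-well plates exposed to compound for 48 hours at five concentrations. At the GI50, growth is halved.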 Calls of active or inactive are those of the source. Cut-off read from the data, not from the text of the source: active = GI50 up to about 1.1 µM and inactive = higher.
How the values were obtained:
Assay in all cases: inhibition of tumour cell growth, NCI panel, 48 h
DLD-1 = test system: DLD-1
HOP-18 = test system: HOP-18
M19-MEL = test system: M19-MEL
RXF 631 = test system: RXF 631
XF498 = test system: XF498
LXFL 529 = test system: LXFL 529
DMS-114 = test system: DMS-114
DMS-273 = test system: DMS-273

Row | Compound | GI50 (DLD-1) | GI50 (HOP-18) | GI50 (M19-MEL) | GI50 (RXF 631) | GI50 (XF498) | GI50 (LXFL 529) | GI50 (DMS-114) | GI50 (DMS-273)
1 | O=c1[nH]c(Br)nc2c(Br)c[nH]c12 | > 100 µM (inactive) | > 100 µM (inactive) | > 100 µM (inactive) | > 100 µM (inactive) | > 100 µM (inactive) | > 100 µM (inactive) | > 100 µM (inactive) | > 100 µM (inactive)
2 | N#Cc1cc(NC(=O)c2ccccc2)c(=O)n2c1[nH]c1ccccc12 | 28.9 µM (inactive) | 7.45 µM (inactive) | 30.1 µM (inactive) | 46.9 µM (inactive) | 31.4 µM (inactive) | 33 µM (inactive) | 23 µM (inactive) | 30.1 µM (inactive)
3 | CCS(CC)(CC)CC1CCCC2=CCC(P(=O)(c3ccccc3)c3ccccc3)CC21 (stereo not given) | 11.2 µM (inactive) | 23.8 µM (inactive) | 17.9 µM (inactive) | 13.6 µM (inactive) | 5.81 µM (inactive) | 9.64 µM (inactive) | 8.81 µM (inactive) | 9.08 µM (inactive)
4 | O=C1OC(c2ccccc2)=N/C1=C/NC(CO)C(=O)O (stereo not given) | > 100 µM (inactive) | 45.6 µM (inactive) | > 100 µM (inactive) | > 100 µM (inactive) | > 100 µM (inactive) | > 100 µM (inactive) | > 100 µM (inactive) | > 100 µM (inactive)
5 | COc1ccc(C[C@H](N)C(=O)NC2C(CO)OC(n3cnc4c(N(C)C)ncnc43)C2O)cc1 (stereo not given in full) | 1.11 µM (active) | 2.13 µM (inactive) | 0.296 µM (active) | 1 µM (active) | 0.0458 µM (active) | 0.121 µM (active) | 0.17 µM (active) | 0.258 µM (active)

— ChEMBL document CHEMBL1201862, “PubChem BioAssay data set” (2004)
